Laboratory results as given in PMC3048208 (British Journal of Cancer, 2011).
Entries after “also recorded” stand apart in the source; their conditions may differ. Where a name gives a salt, the structure may show the parent alone. Read-outs that look alike come from different tables or passages of the source.

Key:
[1] = tested on: HCT-116 cells; design: method as in Novotny-Diermayr et al, 2010; details: ref Novotny-Diermayr et al, 2010; cited from earlier work
[2] = Plasma pharmacokinetics of SB939 in patients, LC–MS/MS, non-compartmental; type: in vivo, human; details: for AUC(0-inf) / Cmax / half-life / Tmax: human, plasma
Method: Pre-dose PK assessment was also performed on day 15 of treatment.
Whole blood was collected into a 3-ml blood tubes containing K2EDTA anti-coagulant and centrifuged at 1000 g for 10 min at 4°C. Plasma was kept as an aliquot and frozen at −80°C. […] The samples were centrifuged at 1200 g for 10 min at 4°C, and the supernatant was stored at −80°C until analysis at MPI Research, Mattawan, MI, USA. Pharmacokinetic parameters were calculated by a non-compartmental method using WinNonlin 4.0 software (Pharsight Corporation, Mountain View, CA, USA). Peak plasma concentration (Cmax) and time to peak concentration (Tmax) were estimated from the plasma drug concentration–time curve. The elimination half-life (T1/2) during the log-linear terminal phase was calculated from the elimination rate constant determined by a linear regression analysis. The area under the concentration time curve extrapolated to infinity (AUC0−∞) was calculated by the log-linear trapezoidal method for the observed values, with extrapolation to infinity including at least three points on the terminal phase.

[3] = tested on: wide variety of cell lines; design: method as in Novotny-Diermayr et al, 2010; details: in vitro; ref Novotny-Diermayr et al, 2010; cited from earlier work
[4] = design: method as in Novotny-Diermayr et al, 2010; details: animal pre-clinical models; ref Novotny-Diermayr et al, 2010; cited from earlier work
[5] = tested on: class I, II and IV HDACs; details: in vitro; ref Novotny-Diermayr et al, 2010; cited from earlier work
[6] = tested on: dog; details: 3 days per week in a 28-day cycle; cited from earlier work
[7] = tested on: acetylated histone H3 (AcH3) in PBMCs; assay: AcH3 levels in PBMCs by western blot; type: in vivo, human
Method: Based on the preclinical data showing parallel changes in AcH3 in PBMCs and tumour tissue, PBMCs were selected for study in the phase I trial ([Novotny-Diermayr et al, 2008]; [Yong et al, 2009]).
Whole blood samples for PD evaluation were taken in cycle 1, days 1 and 15 at pre-dose followed by 3 and 24 h post-dose. For each sample, blood was collected at room temperature in an 8-ml BD Vacutainer CPT tube (Becton, Dickson and Company, Franklin Lakes, NJ, USA). Blood samples were processed in a refrigerated centrifuge within 30 min of collection to preserve histone acetylation status. PBMCs were extracted from blood, processed to pellet form and stored at −80°C. Levels of AcH3 in PBMCs were determined using a validated western blot technique ([Novotny-Diermayr et al, 2008]).

[8] = tested on: xenograft models of colon (HCT-116), ovarian (A2780) and prostate (PC3, DU145) carcinomas; design: method as in Novotny-Diermayr et al, 2010; details: ref Novotny-Diermayr et al, 2010, cited from earlier work
[9] = tested on: advanced solid tumours; assay: Anti-tumour activity (RECIST 1.0); type: in vivo, human; details: for Period of disease stabilisation: colorectal carcinoma patient
Method: For patients with measurable disease at baseline, response was assessed using the Response and Evaluation Criteria in Solid Tumours version 1.0 ([Therasse et al, 2000]).

[10] = tested on: patients with solid tumours; design: method as in Yong et al, 2008; details: three times weekly, 3 out of 4 weeks; ref Yong et al, 2008; cited from earlier work
[11] = tested on: cancer cells; design: method as in Novotny-Diermayr et al, 2010; details: ref Novotny-Diermayr et al, 2010; cited from earlier work
[12] = oral, 10 mg, Day 1, dose level 1, 10 mg, 3 days every 2 weeks
[13] = oral, 10 mg, Day 1, dose level 2, 10 mg
[14] = oral, 10 mg, Day 3 or 5, dose level 1, 10 mg, 3 days every 2 weeks
[15] = oral, 10 mg, Day 3 or 5, dose level 2, 10 mg
[16] = oral, 20 mg, Day 1, dose level 3, 20 mg
[17] = oral, 20 mg, Day 3 or 5, dose level 3, 20 mg
[18] = oral, 30 mg, Day 1, dose level 4, 30 mg
[19] = oral, 30 mg, Day 3 or 5, dose level 4, 30 mg
[20] = oral, 50 mg, Day 1, dose level 5, 50 mg
[21] = oral, 50 mg, Day 3 or 5, dose level 5, 50 mg
[22] = oral, 60 mg, Day 1, dose level 5.5, 60 mg
[23] = oral, 60 mg, Day 3 or 5, dose level 5.5, 60 mg
[24] = oral, 70 mg, Day 1, dose level 6, 70 mg
[25] = oral, 70 mg, Day 3 or 5, dose level 6, 70 mg
[26] = oral, 90 mg, Day 1, dose level 7, 90 mg
[27] = oral, 90 mg, Day 3 or 5, dose level 7, 90 mg

For CCCCc1nc2cc(/C=C/C(=O)NO)ccc2n1CCN(CC)CC [SB939, 3-[2-butyl-1-(2-diethylaminoethyl)-1H-benzoimidazol-5-yl]-N-hydroxyacrylami-hydrochloride], the “Effectiveness compared with vorinostat” value [1] is listed as “more effective than vorinostat”, the “Dose proportionality of mean AUC” value ([2]; between 10 and 90 mg) is listed as “dose-proportional increases in AUC; also recorded: increased dose proportionally” and the “Accumulation on Day 5 compared with Day 1” value ([2]; daily x 5 dosing) is listed as “no accumulation”. The AUC(0-inf) [2, 12] was 127 ng·h/mL, the Cmax [2, 12] was 14.6 ng/mL and the half-life ([2]; oral, 10 mg, Day 1, dose level 1, 10 mg, 3 days every 2 weeks, read-out: T1/2, mean (converted)) was 7.1 h. For the same molecule, the Tmax ([2]; oral, 10 mg, Day 1, dose level 1, 10 mg, 3 days every 2 weeks, read-out: Tmax, mean) was 2.5 h, the AUC(0-inf) [2, 13] was 137 ng·h/mL and the Cmax [2, 13] was 19.5 ng/mL. For the same molecule, the half-life ([2]; oral, 10 mg, Day 1, dose level 2, 10 mg, read-out: T1/2, mean (converted)) was 8.6 h, the Tmax ([2]; oral, 10 mg, Day 1, dose level 2, 10 mg, read-out: Tmax, mean) was 1.1 h and the AUC(0-inf) [2, 14] was 147 ng·h/mL. It also gave a Cmax [2, 14] of 18.3 ng/mL, a half-life ([2]; oral, 10 mg, Day 3 or 5, dose level 1, 10 mg, 3 days every 2 weeks, read-out: T1/2, mean (converted)) of 8.3 h and a Tmax ([2]; oral, 10 mg, Day 3 or 5, dose level 1, 10 mg, 3 days every 2 weeks, read-out: Tmax, mean) of 1.3 h. It also gave an AUC(0-inf) [2, 15] of 188 ng·h/mL, a Cmax [2, 15] of 23.3 ng/mL and a half-life ([2]; oral, 10 mg, Day 3 or 5, dose level 2, 10 mg, read-out: T1/2, mean (converted)) of 8.1 h. It also gave a Tmax ([2]; oral, 10 mg, Day 3 or 5, dose level 2, 10 mg, read-out: Tmax, mean) of 1.3 h, an AUC(0-inf) [2, 16] of 244 ng·h/mL and a Cmax [2, 16] of 45.9 ng/mL. The half-life ([2]; oral, 20 mg, Day 1, dose level 3, 20 mg, read-out: T1/2, mean (converted)) was 5.9 h, the Tmax ([2]; oral, 20 mg, Day 1, dose level 3, 20 mg, read-out: Tmax, mean) was 1.5 h and the AUC(0-inf) [2, 17] was 424 ng·h/mL. It also gave a Cmax [2, 17] of 51.3 ng/mL, a half-life ([2]; oral, 20 mg, Day 3 or 5, dose level 3, 20 mg, read-out: T1/2, mean (converted)) of 7.7 h and a Tmax ([2]; oral, 20 mg, Day 3 or 5, dose level 3, 20 mg, read-out: Tmax, mean) of 1.6 h. The AUC(0-inf) [2, 18] was 384 ng·h/mL, the Cmax [2, 18] was 55.8 ng/mL and the half-life ([2]; oral, 30 mg, Day 1, dose level 4, 30 mg, read-out: T1/2, mean (converted)) was 8.6 h. For the same molecule, the Tmax ([2]; oral, 30 mg, Day 1, dose level 4, 30 mg, read-out: Tmax, mean) was 1.8 h, the AUC(0-inf) [2, 19] was 544 ng·h/mL and the Cmax [2, 19] was 74.3 ng/mL. The half-life ([2]; oral, 30 mg, Day 3 or 5, dose level 4, 30 mg, read-out: T1/2, mean (converted)) was 8.8 h, the Tmax ([2]; oral, 30 mg, Day 3 or 5, dose level 4, 30 mg, read-out: Tmax, mean) was 1.6 h and the AUC(0-inf) [2, 20] was 661 ng·h/mL. The Cmax [2, 20] was 124 ng/mL, the half-life ([2]; oral, 50 mg, Day 1, dose level 5, 50 mg, read-out: T1/2, mean (converted)) was 5.6 h and the Tmax ([2]; oral, 50 mg, Day 1, dose level 5, 50 mg, read-out: Tmax, mean) was 1.6 h. For the same molecule, the AUC(0-inf) [2, 21] was 794 ng·h/mL, the Cmax [2, 21] was 101 ng/mL and the half-life ([2]; oral, 50 mg, Day 3 or 5, dose level 5, 50 mg, read-out: T1/2, mean (converted)) was 8.9 h. For the same molecule, the AUC(0-inf) [2, 22] was 1030 ng·h/mL, the Cmax [2, 22] was 210 ng/mL and the half-life ([2]; oral, 60 mg, Day 1, dose level 5.5, 60 mg, read-out: T1/2, mean (converted)) was 6.7 h. The Tmax ([2]; oral, 60 mg, Day 1, dose level 5.5, 60 mg, read-out: Tmax, mean) was 1.2 h, the AUC(0-inf) [2, 23] was 1630 ng·h/mL and the Cmax [2, 23] was 262 ng/mL. The half-life ([2]; oral, 60 mg, Day 3 or 5, dose level 5.5, 60 mg, read-out: T1/2, mean (converted)) was 6.9 h, the Tmax ([2]; oral, 60 mg, Day 3 or 5, dose level 5.5, 60 mg, read-out: Tmax, mean) was 1.3 h and the AUC(0-inf) [2, 24] was 1050 ng·h/mL. It also gave a Cmax [2, 24] of 178 ng/mL, a half-life ([2]; oral, 70 mg, Day 1, dose level 6, 70 mg, read-out: T1/2, mean (converted)) of 7 h and a Tmax ([2]; oral, 70 mg, Day 1, dose level 6, 70 mg, read-out: Tmax, mean) of 1.6 h. For the same molecule, the AUC(0-inf) [2, 25] was 1130 ng·h/mL, the Cmax [2, 25] was 160 ng/mL and the half-life ([2]; oral, 70 mg, Day 3 or 5, dose level 6, 70 mg, read-out: T1/2, mean (converted)) was 6.4 h. The Tmax ([2]; oral, 70 mg, Day 3 or 5, dose level 6, 70 mg, read-out: Tmax, mean) was 1.5 h, the AUC(0-inf) [2, 26] was 1130 ng·h/mL and the Cmax [2, 26] was 229 ng/mL. The half-life ([2]; oral, 90 mg, Day 1, dose level 7, 90 mg, read-out: T1/2, mean (converted)) was 6.4 h, the Tmax ([2]; oral, 90 mg, Day 1, dose level 7, 90 mg, read-out: Tmax, mean) was 1 h and the AUC(0-inf) [2, 27] was 1230 ng·h/mL. It also gave a Cmax [2, 27] of 116 ng/mL, a half-life ([2]; oral, 90 mg, Day 3 or 5, dose level 7, 90 mg, read-out: T1/2, mean (converted)) of 6.1 h and a Tmax ([2]; oral, 90 mg, Day 3 or 5, dose level 7, 90 mg, read-out: Tmax, mean) of 1.5 h. For the same molecule, the Tmax ([2]; po, 10 to 90 mg oral, read-out: Tmax, range over dose levels) was 1 to 2.5 h, the half-life ([2]; po, 10 to 90 mg oral, read-out: Elimination (terminal) half-life, range over dose levels) was 5.6 to 8.9 h and the Anti-proliferative activities [3] was “significant anti-proliferative activities”. For the same molecule, the “Increase in bioavailability compared with vorinostat” value [4] was over 4 fold, the “Longer half-life compared with vorinostat” value [4] was 3.3 fold and the “Selectivity for class I, II and IV HDACs compared with class III HDACs” value [5] was over 1000 fold. The “No observed adverse effect level” value [6] was 60 mg m^−2 per day, the “Dose–PD relationship of AcH3” value ([7]; 10 to 90 mg) was “no clear dose–PD relationship” and the “Change in AcH3 in PBMCs” value ([7]; cycle 1, 3 h or 24 h post-treatment) was “Increases in AcH3 were seen”. The Anti-tumour efficacy ([8]; HCT-116, A2780, PC3, DU145 xenografts, MV4-11, HL-60 and B cell lymphoma murine models) was “dose-dependent anti-tumour efficacy”, the “Drug accumulation and inhibition of histone deacetylation in tumour tissues compared with vorinostat” value ([8]; preclinical experiments) was “prolonged drug accumulation and more sustained inhibition of histone deacetylation” and the Objective tumour responses ([9]; 31 evaluable patients) was “No objective tumour responses”. The “Period of disease stabilisation” value ([9]; dose level 2) was 8.1 months, the “Period of disease stabilisation” value ([9]; dose level 3) was 10.8 months and the “Period of disease stabilisation” value ([9]; dose level 4) was 7.4 months. For the same molecule, the “Disease stabilisation of >6 months, no. of patients” value ([9]; metastatic colorectal carcinoma) was “Three”, the “Best response stable disease” value ([9]; of the 31 evaluable) was 32% and the “Best response stable disease, no. of patients” value ([9]; of the 31 evaluable) was “Ten”. The Disease progression ([9]; of the 31 evaluable) was 68%, the “Disease progression, no. of patients” value ([9]; of the 31 evaluable) was 21 and the “Median duration of disease control” value ([9]; patients with SD) was 5.7 months. The “Range of duration of disease control” value ([9]; patients with SD) was 1.8–10.8 months, the RPTD [10] was 60 mg and the “Immunoblot changes after treatment” value [11] was “accumulation of acetylated histone H3 (AcH3) and acetylated α-tubulin, as well as increased expression levels of the cyclin dependant kinase inhibitor p21”.
